Experiments:
[1] = test system: MDA-MB-435 breast cancer cells; test: Breast cancer metastasis after primary tumor removal, mammary fatpad xenograft; format: in vivo, female nude mice; details: for Incidence of macroscopic lung metastases / Median range of mets: 5 weeks after tumor removal; for Incidence of macroscopic lung metastases: paclitaxel 10 mg/kg i.p. day 10, 17, 24, 2% curcumin (w/w) diet; for Mean tumor Weight: MDA-MB-435 mammary fatpad tumors in nude mice; for Mean tumor Weight / Median range of mets: paclitaxel 10 mg/kg i.p., 2% curcumin diet; for Median range of mets: number of macroscopic lung metastases
Description: Human breast cancer cells (MDA-MB-231 or MDA-MB-435) that express constitutively active NF-κB can be injected into the mammary fatpad of female nude mice as previously described (127). […] Two millions MDA-MB-435 breast cancer cells were injected into the mammary fatpad of female nude mice. […] The treatment continue for up to 5 weeks after tumor removal, at which time the mice were killed and the number of visible metastases and presence of recurrent tumors or metastases in other organs were recorded. The lungs were fixed in 10% buffered formalin and paraffin-embedded section were stained with H&E to determine the incidence of micrometastases, or with antibodies recognizing the p65 subunit of NF-κB and HER2/neu. […] The significance of differences in the incidence of lung metastasis in the different groups was assessed using Fisher's exact test.

[2] = test system: NF-κB; test: EMSA of TNF-dependent NF-κB activation in MDA-MB 435 cells; format: cell-based, human; details: curcumin 0 to 50 μM 4 h, then 0.1 nM TNF 30 min
Description: MCF-7 cells treated with 0 and 0.1 nM TNF was included as negative and positive control. […] The nuclear extracts were prepared and analyzed by EMSA. The specificity of NF-κB can be examined by supershift analysis using antibodies against p50 and p65 subunits of NF-κB as described (109).

[3] = test system: BT20, SKBR3, MCF-7, T47D, and ZR75-1; details: reference 63; cited from earlier work
[4] = test system: MCF-7 cells; test: Cell viability by the MTT method; format: cell-based, human; details: taxol 10 μM with or without curcumin 10 μM, 72 h
[5] = test system: NF-κB; test: EMSA of paclitaxel-induced NF-κB activation in MCF-7 cells; format: cell-based, human; details: curcumin pretreatment 2 h, then taxol 30 μM 12 hrs, EMSA of nuclear extract
Description: Nuclear extract was prepared and EMSA performed using 8 μg of nuclear protein. […] The nuclear extracts were prepared and analyzed by EMSA. The specificity of NF-κB can be examined by supershift analysis using antibodies against p50 and p65 subunits of NF-κB as described (109).

SMILES	Incidence of macroscopic lung metastases [1]	Mean tumor Weight [1]	effect on breast cancer metastases to the lung ([1]; mouse xenograft model, Table 1 and FIG. 5)	Median range of mets [1]	TNF-dependent NF-κB activation [2]	Growth of breast tumor cell lines [3]	cytotoxic effects of paclitaxel (cell viability, MTT) [4]	paclitaxel-induced NF-κB induction [5]
COc1cc(/C=C/C(=O)CC(=O)/C=C/c2ccc(O)c(OC)c2)ccc1O [Curcumin, diferuloylmethane]	71%	0.71 ± 0.3 g	enhances the effect of paclitaxel and suppresses breast cancer metastases to the lung	5 (0–44)	inhibited TNF-dependent NF-κB activation	completely inhibited	enhances the cytotoxic effects of paclitaxel	downregulated paclitaxel-induced NF-κB induction in MCF-7 cells in a dose dependent manner
CC(=O)O[C@H]1C(=O)[C@@]2(C)[C@H]([C@H](OC(=O)c3ccccc3)[C@]3(O)C[C@H](OC(=O)[C@H](O)[C@@H](NC(=O)c4ccccc4)c4ccccc4)C(C)=C1C3(C)C)[C@]1(OC(C)=O)CO[C@@H]1C[C@@H]2O [paclitaxel, Paclitaxel]	83%	0.74 ± 0.4 g	–	20 (0–>100)	–	–	–	–

Reference: patent US7105576B2, “Synergistic effects of nuclear transcription factor NF-κB inhibitors and anti-neoplastic agents” (priority 2002, dated 2006)
